According to ChEMBL document CHEMBL4359824, “Dual FLT3 inhibitors: Against the drug resistance of acute myeloid leukemia in recent decade” (Eur J Med Chem, 2019):
Blank lines part the entries; values can stand above or below the compound they belong to.

Experiments:
[1] = Oral bioavailability in dog; type: ADME, organism-based, Canis lupus familiaris; conditions: in vivo
[2] = Oral bioavailability in monkey; type: ADME, organism-based, Macaca mulatta; conditions: rhesus monkey, in vivo
MOLM-13 [3] = assay: Antiproliferative activity against human MOLM13 cells after 48 hrs by CellTiter-Glo assay; type: functional, cell-based; conditions: MOLM-13, 48 h
MV4-11 [4] = assay: Antiproliferative activity against human MV4-11 cells after 48 hrs by CellTiter-Glo assay; type: functional, cell-based; conditions: MV4-11, 48 h
MV4-11 [5] = assay: Cytotoxicity against human MV4-11 cells expressing FLT3 ITD mutant; type: functional, cell-based
MOLM-13 [6] = assay: Cytotoxicity against human MOLM13 cells expressing FLT3 ITD mutant; type: functional, cell-based
[7] = molecular target: T1, Receptor-type tyrosine-protein kinase FLT3 (Homo sapiens, UniProt P36888); assay: Inhibition of FLT3 (unknown origin) phosphorylation by [gamma-33P]-ATP assay
T1 sequence (P36888 whole entry): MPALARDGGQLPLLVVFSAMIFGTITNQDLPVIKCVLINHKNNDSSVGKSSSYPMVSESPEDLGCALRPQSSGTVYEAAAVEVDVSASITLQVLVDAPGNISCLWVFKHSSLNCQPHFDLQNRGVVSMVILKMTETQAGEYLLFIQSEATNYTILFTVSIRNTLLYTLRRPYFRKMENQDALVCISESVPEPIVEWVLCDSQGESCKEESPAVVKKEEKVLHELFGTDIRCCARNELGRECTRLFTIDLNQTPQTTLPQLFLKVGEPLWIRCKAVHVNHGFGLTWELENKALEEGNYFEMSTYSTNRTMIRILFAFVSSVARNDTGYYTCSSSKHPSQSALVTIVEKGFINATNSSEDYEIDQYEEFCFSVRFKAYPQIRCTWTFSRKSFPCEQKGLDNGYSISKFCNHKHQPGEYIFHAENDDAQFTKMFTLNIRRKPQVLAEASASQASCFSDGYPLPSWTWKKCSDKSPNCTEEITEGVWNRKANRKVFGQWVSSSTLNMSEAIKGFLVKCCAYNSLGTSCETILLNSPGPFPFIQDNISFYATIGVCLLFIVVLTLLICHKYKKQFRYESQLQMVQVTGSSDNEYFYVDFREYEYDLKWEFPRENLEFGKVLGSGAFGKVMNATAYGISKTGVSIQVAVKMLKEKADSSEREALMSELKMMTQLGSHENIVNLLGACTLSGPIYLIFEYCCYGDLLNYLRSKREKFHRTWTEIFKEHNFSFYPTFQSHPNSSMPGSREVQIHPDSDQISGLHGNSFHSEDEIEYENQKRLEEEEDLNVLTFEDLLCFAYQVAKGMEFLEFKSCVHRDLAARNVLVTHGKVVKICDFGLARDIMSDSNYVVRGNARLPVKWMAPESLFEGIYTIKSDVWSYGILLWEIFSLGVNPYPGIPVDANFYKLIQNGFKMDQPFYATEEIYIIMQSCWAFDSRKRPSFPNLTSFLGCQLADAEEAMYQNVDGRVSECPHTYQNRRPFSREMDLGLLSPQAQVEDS

[8] = molecular target: Dual specificity mitogen-activated protein kinase kinase 1 (Homo sapiens, UniProt Q02750); assay: Inhibition of MEK1 (unknown origin) phosphorylation by [gamma-33P]-ATP assay
[9] = Cytotoxicity against mouse BAF3(transformed) cells harboring D835G mutant by trypan blue dye exclusion method; type: functional, cell-based
[10] = Cytotoxicity against mouse Ba/F3 FLT3-D835Y cells by trypan blue dye exclusion method; type: functional, cell-based; conditions: BaF3
[11] = molecular target: T1, Receptor-type tyrosine-protein kinase FLT3; assay: Inhibition of wild type FLT3 (unknown origin) expressed in mouse BAF3 cells; type: cell-based
[12] = molecular target: T1, Receptor-type tyrosine-protein kinase FLT3; assay: Binding affinity to FLT3 (unknown origin)
[13] = molecular target: Serine/threonine-protein kinase pim-1 (Homo sapiens, UniProt P11309); assay: Binding affinity to Pim-1 (unknown origin)
[14] = molecular target: Serine/threonine-protein kinase pim-2 (Homo sapiens, UniProt Q9P1W9); assay: Binding affinity to Pim-2 (unknown origin)
[15] = molecular target: Serine/threonine-protein kinase pim-3 (Homo sapiens, UniProt Q86V86); assay: Binding affinity to Pim-3 (unknown origin)
MV4-11 [16] = assay: Antitumor activity against human MV4-11 cells xenografted in SCID/beige mouse assessed as tumor growth inhibition at 50 mg/kg administered daily relative to control; type: functional; conditions: read-out: TGI
MV4-11 [17] = assay: Antitumor activity against human MV4-11 cells xenografted in SCID/beige mouse assessed as tumor growth inhibition at 75 mg/kg administered daily relative to control; type: functional; conditions: read-out: TGI
MV4-11 [18] = assay: Antitumor activity against human MV4-11 cells xenografted in SCID/beige mouse assessed as tumor growth inhibition at 100 mg/kg administered daily relative to control; type: functional; conditions: read-out: TGI
MV4-11 [19] = assay: Cytotoxicity against human MV4-11 cells; type: functional, cell-based
MOLM-13 [20] = assay: Cytotoxicity against human MOLM13 cells; type: functional, cell-based
MOLM-14 = assay: Cytotoxicity against human MOLM14 cells; type: functional, cell-based

Sequence of Serine/threonine-protein kinase pim-1 (P11309 whole entry): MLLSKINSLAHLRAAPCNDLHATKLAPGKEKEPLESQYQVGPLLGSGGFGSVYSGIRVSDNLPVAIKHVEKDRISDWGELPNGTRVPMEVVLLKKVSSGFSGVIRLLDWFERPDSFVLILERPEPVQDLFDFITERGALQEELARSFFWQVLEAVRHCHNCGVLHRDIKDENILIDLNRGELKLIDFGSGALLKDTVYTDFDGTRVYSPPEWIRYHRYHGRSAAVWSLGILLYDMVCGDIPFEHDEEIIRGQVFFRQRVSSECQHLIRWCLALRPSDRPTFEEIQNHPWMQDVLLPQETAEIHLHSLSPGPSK
Sequence of Dual specificity mitogen-activated protein kinase kinase 1 (Q02750 whole entry): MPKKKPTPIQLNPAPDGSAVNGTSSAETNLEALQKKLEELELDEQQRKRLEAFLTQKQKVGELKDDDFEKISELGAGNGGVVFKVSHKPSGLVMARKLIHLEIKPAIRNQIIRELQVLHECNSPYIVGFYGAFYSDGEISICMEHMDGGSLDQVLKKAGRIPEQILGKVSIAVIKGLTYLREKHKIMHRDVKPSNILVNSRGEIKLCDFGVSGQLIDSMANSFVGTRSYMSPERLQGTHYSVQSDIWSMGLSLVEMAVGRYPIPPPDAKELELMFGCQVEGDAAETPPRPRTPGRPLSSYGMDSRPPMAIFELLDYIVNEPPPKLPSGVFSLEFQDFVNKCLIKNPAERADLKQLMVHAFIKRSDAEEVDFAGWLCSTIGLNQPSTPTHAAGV
Sequence of Serine/threonine-protein kinase pim-2 (Q9P1W9 whole entry): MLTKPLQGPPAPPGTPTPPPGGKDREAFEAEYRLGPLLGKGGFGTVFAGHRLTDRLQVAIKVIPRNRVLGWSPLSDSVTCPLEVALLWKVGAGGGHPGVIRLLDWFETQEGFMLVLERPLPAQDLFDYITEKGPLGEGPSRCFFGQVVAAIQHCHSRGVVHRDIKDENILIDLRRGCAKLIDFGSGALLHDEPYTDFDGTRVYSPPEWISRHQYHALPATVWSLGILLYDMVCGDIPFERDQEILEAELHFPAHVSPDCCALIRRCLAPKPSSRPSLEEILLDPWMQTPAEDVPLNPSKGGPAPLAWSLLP

SMILES: CC1(COc2ccc3c(c2)ncn3-c2ccc3cccc(N4CCC(N)CC4)c3n2)COC1 [CRENOLANIB]
- IC50 (MV4-11 [5]): 1.5 nM
- IC50 (MOLM-13 [6]): 4.9 nM

SMILES: CCNc1cc(O)c2c(c1)/C=C/C[C@H](O)[C@H](O)C(=O)/C=C\[C@@H](C)[C@H](C)OC2=O [E-6201]
- IC50 [7]: 5 nM
- IC50 [8]: 50 nM
- IC50 [9]: 4600 nM
- IC50 [10]: 26000 nM

SMILES: COc1cccc2nc(-c3cccs3)nc(NN3C(=O)C=C(C)C3=O)c12 [AS-602868]
- IC50 [11]: 618 nM

SMILES: C[C@]12O[C@H](C[C@H](O)[C@H]1O)n1c3ccccc3c3c4c(c5c6ccccc6n2c5c31)C(=O)NC4=O
- Kd [12]: 3.2 nM
- Kd [13]: 2.9 nM
- Kd [14]: 3.1 nM
- Kd [15]: 0.4 nM

SMILES: CC(C)n1c(C2CCNCC2)nc2c([N+](=O)[O-])c(Br)c(Br)cc21 [DAPOLSERTIB]
- inhibition in vivo at 50 mg/kg (MV4-11 [16]): 67%
- inhibition in vivo at 75 mg/kg (MV4-11 [17]): 74%
- inhibition in vivo at 100 mg/kg (MV4-11 [18]): 82%

SMILES: Cc1n[nH]c2ccc(-c3cncc(OC[C@@H](N)Cc4ccccc4)c3)cc12
- EC50 (MV4-11 [19]): 92 nM
- EC50 (MOLM-13 [20]): 170 nM
- EC50 (MOLM-14): 60 nM

Continued, values first:

- bioavailability [1]: 50%
- bioavailability [2]: 100%
SMILES: COc1cc2c(N3CCN(C(=O)Nc4ccc(OC(C)C)cc4)CC3)ncnc2cc1OCCCN1CCCCC1 [TANDUTINIB]

- IC50 (MOLM-13 [3]): 47 nM
- IC50 (MV4-11 [4]): 67 nM
SMILES: C1=N/C2=N/c3ccc(OCCN4CCCC4)c(c3)COC/C=C/COCc3cccc(c3)C(=C1)N2 [PACRITINIB]
